What was measured:
HepG2 cells = experiment: In vitro anti-proliferative SRB assay, HepG2; format: cell-based, human; details: for IC50: Homo sapiens, HepG2, increasing concentrations up to 30 μM, mean ± SD of at least three independent experiments; for SI (CC50 HMLE/IC50 HepG2) / SI (CC50 L02/IC50 HepG2): selectivity index; for SI (CC50 HMLE/IC50 HepG2): HMLE vs HepG2; for SI (CC50 L02/IC50 HepG2): L02 vs HepG2
Procedure: (§1) HepG2 and MCF7 cells were grown in the Eagle’s minimum essential medium with Earle’s balanced salts (MEM-EBSS) medium, HeLa, A549 and L02 cells were grown in Dulbecco’s Modified Eagle Media (DMEM), SW1990 cells were grown in RPMI-1640 medium, and HMLE cell were grown in DMEM/F-12 medium. […]
(§2) Cells were seeded into 96-well plates (4000 cells/well) and incubated at 37 °C in a humidified 5% CO2 atmosphere. After 24 h, the cells were treated with different concentrations of the compounds for 48 h in triplicate to generate dose-response curves. Cell viability was evaluated using the sulforhodamine B (SRB) assay as previous described.

HeLa cells = experiment: In vitro anti-proliferative SRB assay, HeLa; format: cell-based, human; details: for IC50: Homo sapiens, HeLa, increasing concentrations up to 30 μM, mean ± SD of at least three independent experiments; for SI (CC50 HMLE/IC50 Hela) / SI (CC50 L02/IC50 Hela): selectivity index; for SI (CC50 HMLE/IC50 Hela): HMLE vs HeLa; for SI (CC50 L02/IC50 Hela): L02 vs HeLa
Procedure: as §1, §2

MCF-7 cells = experiment: In vitro anti-proliferative SRB assay, MCF-7; format: cell-based, human; details: for IC50: Homo sapiens, MCF7, increasing concentrations up to 30 μM, mean ± SD of at least three independent experiments; for SI (CC50 HMLE/IC50 MCF7) / SI (CC50 L02/IC50 MCF7): selectivity index; for SI (CC50 HMLE/IC50 MCF7): HMLE vs MCF7; for SI (CC50 L02/IC50 MCF7): L02 vs MCF7
Procedure: as §1, §2

A549 cells = experiment: In vitro anti-proliferative SRB assay, A549; format: cell-based, human; details: for IC50: Homo sapiens, A549, increasing concentrations up to 30 μM, mean ± SD of at least three independent experiments; for SI (CC50 HMLE/IC50 A549) / SI (CC50 L02/IC50 A549): selectivity index; for SI (CC50 HMLE/IC50 A549): HMLE vs A549; for SI (CC50 L02/IC50 A549): L02 vs A549
Procedure: as §1, §2

SW1990 cells = experiment: In vitro anti-proliferative SRB assay, SW1990; format: cell-based, human; details: for IC50: Homo sapiens, SW1990, increasing concentrations up to 30 μM, mean ± SD of at least three independent experiments; for SI (CC50 HMLE/IC50 SW1990) / SI (CC50 L02/IC50 SW1990): selectivity index; for SI (CC50 HMLE/IC50 SW1990): HMLE vs SW1990; for SI (CC50 L02/IC50 SW1990): L02 vs SW1990
Procedure: as §1, §2

[1] = Cytotoxicity (SRB) against non-tumoral HMLE cells; format: cell-based, human; details: human, HMLE cells (non-tumoral human mammary epithelial cells); increasing concentrations up to 100 μM; mean ± SD of at least three independent experiments; read-out: Normal Human Cell Lines, CC50, HMLE
Procedure: (§3) All compounds were also evaluated for their cytotoxic activity against two non-tumoral human cell lines named human mammary epithelial cell (HMLE) and L02 (a human liver cell line) in Table 2 and SI values between the CC50 in non-tumoral cell lines and IC50 in tumoral cells calculated.
as §1
(§4) Cells were seeded into 96-well plates (4000 cells/well) and incubated at 37 °C in a humidified 5% CO2 atmosphere. After 24 h, the cells were treated with different concentrations of the compounds for 48 h in triplicate to generate dose-response curves. Cell viability was evaluated using the sulforhodamine B (SRB) assay as previous described. […] Etoposide was used as the positive control.

[2] = Cytotoxicity (SRB) against non-tumoral L02 cells; format: cell-based, human; details: human, L02 cells (non-tumoral human liver cell line); increasing concentrations up to 100 μM; mean ± SD of at least three independent experiments; read-out: Normal Human Cell Lines, CC50, L02
Procedure: as §3, §1, §4

SMILES: COc1cccc(OC)c1/C=C/C(=O)c1cccc(C)c1 [b3, (E)-1-(3-Methylphenyl)-3-(2,6-dimethoxyphenyl)prop-2-en-1-one]
- IC50 (HepG2 cells): 12.8 ± 0.5 µM
- SI (CC50 HMLE/IC50 HepG2) (HepG2 cells): 1.3
- SI (CC50 L02/IC50 HepG2) (HepG2 cells): 2.6
- IC50 (HeLa cells): 13.3 ± 2.14 µM
- SI (CC50 HMLE/IC50 Hela) (HeLa cells): 1.2
- SI (CC50 L02/IC50 Hela) (HeLa cells): 2.5
- IC50 (MCF-7 cells): 26.8 ± 4.26 µM
- SI (CC50 HMLE/IC50 MCF7) (MCF-7 cells): 0.6
- SI (CC50 L02/IC50 MCF7) (MCF-7 cells): 1.2
- IC50 (A549 cells): 20.7 ± 0.59 µM
- SI (CC50 HMLE/IC50 A549) (A549 cells): 0.8
- SI (CC50 L02/IC50 A549) (A549 cells): 1.6
- IC50 (SW1990 cells): 25.2 ± 2 µM
- SI (CC50 HMLE/IC50 SW1990) (SW1990 cells): 0.6
- SI (CC50 L02/IC50 SW1990) (SW1990 cells): 1.3
- CC50 at 48 h [1]: 16.2 ± 0.19 µM
- CC50 at 48 h [2]: 33.3 ± 1.61 µM
- melting point: 102.5 to 103.8 °C

SMILES: COc1cccc(OC)c1/C=C/C(=O)c1ccc(C)cc1 [b4, (E)-1-(4-Methylphenyl)-3-(2,6-dimethoxyphenyl)prop-2-en-1-one]
- IC50 (HepG2 cells): 19.5 ± 1.28 µM
- SI (CC50 HMLE/IC50 HepG2) (HepG2 cells): 0.7
- SI (CC50 L02/IC50 HepG2) (HepG2 cells): 3.1
- IC50 (HeLa cells): 18.6 ± 0.36 µM
- SI (CC50 HMLE/IC50 Hela) (HeLa cells): 0.7
- SI (CC50 L02/IC50 Hela) (HeLa cells): 3.2
- IC50 (MCF-7 cells): 25.44 ± 0.15 µM
- SI (CC50 HMLE/IC50 MCF7) (MCF-7 cells): 0.5
- SI (CC50 L02/IC50 MCF7) (MCF-7 cells): 2.3
- IC50 (A549 cells): 22.1 ± 0.6 µM
- SI (CC50 HMLE/IC50 A549) (A549 cells): 0.6
- SI (CC50 L02/IC50 A549) (A549 cells): 2.7
- IC50 (SW1990 cells): > 30 µM
- SI (CC50 HMLE/IC50 SW1990) (SW1990 cells): <0.5
- SI (CC50 L02/IC50 SW1990) (SW1990 cells): <2.0
- CC50 at 48 h [1]: 13.8 ± 1.69 µM
- CC50 at 48 h [2]: 59.6 ± 5.56 µM
- melting point: 82.7 to 84.5 °C

SMILES: COc1cccc(OC)c1/C=C/C(=O)c1ccc(C)c(C)c1 [b5, (E)-1-(3,4-Dimethylphenyl)-3-(2,6-dimethoxyphenyl)prop-2-en-1-one]
- IC50 (HepG2 cells): 26.8 ± 0.3 µM
- SI (CC50 HMLE/IC50 HepG2) (HepG2 cells): 0.6
- SI (CC50 L02/IC50 HepG2) (HepG2 cells): 0.9
- IC50 (HeLa cells): 20.3 ± 1.01 µM
- SI (CC50 HMLE/IC50 Hela) (HeLa cells): 0.8
- SI (CC50 L02/IC50 Hela) (HeLa cells): 1.2
- IC50 (MCF-7 cells): 30.31 ± 0.29 µM
- SI (CC50 HMLE/IC50 MCF7) (MCF-7 cells): 0.5
- SI (CC50 L02/IC50 MCF7) (MCF-7 cells): 0.8
- IC50 (A549 cells): > 30 µM
- SI (CC50 HMLE/IC50 A549) (A549 cells): <0.5
- SI (CC50 L02/IC50 A549) (A549 cells): <0.8
- IC50 (SW1990 cells): > 30 µM
- SI (CC50 HMLE/IC50 SW1990) (SW1990 cells): <0.5
- SI (CC50 L02/IC50 SW1990) (SW1990 cells): <0.8
- CC50 at 48 h [1]: 15.7 ± 0.76 µM
- CC50 at 48 h [2]: 25.2 ± 2.71 µM
- melting point: 98.9 to 101.1 °C

SMILES: COc1cccc(C(=O)/C=C/c2c(OC)cccc2OC)c1 [b7, (E)-1-(3-Methoxyphenyl)-3-(2,6-dimethoxyphenyl)prop-2-en-1-one]
- IC50 (HepG2 cells): 6.97 ± 0.55 µM
- SI (CC50 HMLE/IC50 HepG2) (HepG2 cells): 1.2
- SI (CC50 L02/IC50 HepG2) (HepG2 cells): 2.6
- IC50 (HeLa cells): 9.98 ± 0.37 µM
- SI (CC50 HMLE/IC50 Hela) (HeLa cells): 0.8
- SI (CC50 L02/IC50 Hela) (HeLa cells): 1.8
- IC50 (MCF-7 cells): 6.37 ± 0.05 µM
- SI (CC50 HMLE/IC50 MCF7) (MCF-7 cells): 1.3
- SI (CC50 L02/IC50 MCF7) (MCF-7 cells): 2.8
- IC50 (A549 cells): 14 ± 0.19 µM
- SI (CC50 HMLE/IC50 A549) (A549 cells): 0.6
- SI (CC50 L02/IC50 A549) (A549 cells): 1.3
- IC50 (SW1990 cells): 15.6 µM
- SI (CC50 HMLE/IC50 SW1990) (SW1990 cells): 0.5
- SI (CC50 L02/IC50 SW1990) (SW1990 cells): 1.2
- CC50 at 48 h [1]: 8.14 ± 0.53 µM
- CC50 at 48 h [2]: 18.1 ± 5.82 µM
- melting point: 93.5 to 95.6 °C
